Counter-ions that a name gives are not always drawn. Like-named read-outs stand apart in the source and are kept apart here.
Columns and labels:
[1] = system: PSAPP mice; test: Contextual fear conditioning test; assay type: in vivo, mouse
From the text: (§1) Heterozygous mutant (K670N/M671L) APP (50% C57B6, 50% SJL) transgenic mice were crossed with heterozygous mutant (A246E) PS-1 (50% C57B6, 50% SJL) transgenic mice to generate heterozygous PSAPP transgenic mice (also referred to as PS-1/APP or PSAPP+/+ mice), which refers to animals heterozygous for the PS-1 A246E transgene and the APP K670N/M671L transgene. Non-transgenic control animals were littermates (also referred to as PSAPP_−/− mice) generated in the breeding for PSAPP transgenic animals. Mouse genotype was determined by Polymerase Chain Reaction (PCR). Both male and female mice of 6-7 months old were used for the experiments below. All animal experiments were performed in accordance with the Tufts Animal Care and Use Committee and with national regulations and policies.
On day one, animals were trained in a fear conditioning apparatus for a total of 7 minutes with a two-pairing paradigm of cue and mild foot shock (a 30-s acoustic-conditioned stimulus, 80 dB; a 2-s shock stimulus, 0.5 mA). To evaluate contextual fear learning, the animals were returned to the training context 24 hours post-training, and freezing behavior was scored for 5 minutes. Freezing behavior was monitored by MotorMonitor (Hamilton Kinder) and scored every 5 seconds.
In this study, the fear conditioning associative learning paradigm was used as a rapid cognition assay for PSAPP mice. This study allowed us to probe cognitive function with a single training day followed in 24 hours by tests for contextual and cued fear learning. Contextual fear learning is dependent upon a brain area that has been implicated as a locus for cognitive decline in AD: the hippocampus. Two pairings of CS-US for fear conditioning were followed 24 hours later by testing for contextual and cued fear learning. Previous studies have reported that PSAPP animals appear to have a selective hippocampus-dependent impairment in associative learning following two pairings of conditioned stimuli for fear conditioning.
This represents a decrease in the cognitive impairment observed in the untreated mice.

[2] = system: amyloid plaques in PSAPP mice; test: Postmortem immunohistochemistry of plaque load in cortex and hippocampus; assay type: in vivo, mouse; conditions: for decrease in plaque load, cortex / decrease in plaque load, hippocampus: acute i.c.v.
From the text: as §1
Mice were perfused transcardially with 4% paraformaldehyde and 40 μm Coronal sections were collected. Sections were sequentially incubated in 0.3% H2O2 for 10 minutes, blocking solution for 2 hrs, blocking solution containing the primary antibody (rabbit anti-beta1-42; rabbit anti-beta1-40, from Chemicon International and rat anti-CD45) for 48 hours at 4° C., and blocking solution containing biotinylated antibody or fluorescently-labeled antibody for 2 hours at room temperature. Sections were visualized in a bright field microscope or a confocal microscope, and the optical density was obtained using MetaMorph software.
After repeated imaging, brains were fixed and subjected to postmortem immunohistochemistry with amyloid beta specific antibodies β1-40 and β1-42 to evaluate the plaque load (area occupied by immunostaining of plaque) in cortex and hippocampus.
PSB0474 was systemically administered to PSAPP mice via intraperitoneal injection for 2, 4 and 6 consecutive days. In one group, prior to evaluation and following to administration for 6 consecutive days, treatment was suspended for two weeks (6+2 weeks group). Brains were then fixed and plaque load was evaluated by immunostaining with the amyloid beta specific antibodies: β1-40 and β1-42. Representative images of plaque load in cortex and hippocampus from animals that received injections of PSB0474 according to the foregoing injection schedules are shown in FIG. 5(A)-(D). […] Whereas, when administration of PSB0474 was stopped for 2 weeks following six consecutive days of treatment (denoted as the 6+2 weeks group), β1-40 staining rebounded; although to a level lower than observed in mice treated with saline as a vehicle control. FIGS. 6A and 6B depict the reduction in plaque load (%) the cortex and hippocampus, respectively, in PSAPP mice after treatment with 3-phenacyl-UDP for 2, 4, or 6 consecutive days, as assayed by staining with the β1-40 antibody. FIGS. 6C-6F depict data obtained following administration of different dosages of PSB0474.
To generate these graphs showing plaque load, mice were euthanized, brain sections cut and antibodies directed against Aβ 42 were used to disclose Aβ plaques. Images were acquired digitally and an algorithm was applied to threshold the image so that plaques were isolated from the background. The algorithm then calculated the percent area of the field of view occupied by the plaques.

[3] = system: plasma cytokines; test: Plasma cytokine levels after 7 daily i.p. injections; assay type: in vivo, mouse; conditions: 1 μg/kg i.p., 7 days
Description: Inflammatory cytokines were assessed in mouse plasma of both wild type and PS1/APP mice (Alzheimer's mouse model) and the impact of intraperitoneal delivery of compound 5 on circulating cytokines was assessed. Seven daily intraperitoneal injections of 1 μg/kg of compound 5 were delivered to mice. 24 hours following the final injection, plasma was collected. Wildtype, age matched littermates and PSAPP mice (>6 months of age) were treated either with vehicle (phosphate buffered saline) or vehicle containing compound.

[4] = biological target: T1, P2Y6 receptor (Homo sapiens, UniProt Q15077); conditions: cited from earlier work
[5] = system: PSAPP mice; test: Tolerability of increased dose in PSAPP mice; assay type: in vivo, mouse; conditions: 1000× increase in dose
[6] = system: PSAPP mice; test: Hippocampal long-term potentiation (LTP) recording; assay type: in vivo, mouse; conditions: acute treatment, HFS
Description: Hippocampal slices (350 μm thick) were prepared from 6-month-old PSAPP mice. Baseline responses were obtained every 10 seconds and Input-output (I/O) curves, paired-pulse modification and LTP were successively measured. The stimulation intensity was set to a level that gives a value of 30% of the maximum obtained. LTP were induced by high frequency stimulation (HFS, 100 pulses at 100 Hz, four times) or by theta-burst stimulation (TBS, 10 bursts at 5 Hz, repeated 10 times in 15 s intervals).
Accumulated evidence has shown that amyloid peptides naturally secreted or isolated from Alzheimer's brains impair synaptic plasticity, especially hippocampal long-term potentiation (Walsh et al., 2002). Therefore, we further performed LTP recordings in PASPP mice and investigated whether P2Y6 receptor-mediated plaque clearance affects synaptic plasticity. […] First, it was observed that LTP at the schaffer collateral synapse within the CA1 region was depressed in PSAPP mice, as compared with littermates (FIG. 8(A)).

[7] = system: amyloid plaques in PSAPP mice; test: Two-photon in vivo imaging of methoxyX04-labeled amyloid plaques in barrel cortex; set-up: species or system mouse; conditions: acute i.c.v. injection
From the text: as §1
In this study, PSAPP mice were anesthetized using isoflurane and a thin-skull preparation was used to minimize the surface damage. Amyloid plaques were visualized with methoxyX04 labeling and blood plasma was labeled with Rhodamine dextran to facilitate re-localization of the same imaging area. Stack images were obtained using a two-photon system (Prairie Technologies) with excitation at 850 nm. The emission was detected by external photomultiplier tubes (525/70; DLCP 575; 607/45 nm).
Animals were anesthetized and immobilized in a stereotaxic frame. For each injection, 1 μl of 10 mM UDP or other suitable compounds in artificial cerebrospinalfluid (ACSF) as the vehicle were injected intraventricularly using the following coordinates: AP 0.2 mm, ML 1 mm, and DV 2.2 mm.
To evaluate the effect of UDP on plaque burden, two-photon microscopy was used to assess the amyloid plaques in the barrel cortex in living PSAPP mice. Amyloid plaques were stained by systemically administered methoxy-X04. One day prior to imaging, PSAPP mice were injected with methoxyX04 to label the amyloid plaques. On the imaging day, to facilitate the re-location of the same imaging area, blood plasma was labeled with Rhodamine dextran. Images were obtained from the same start- and end-point to ensure the same image volume. […]

[8] = biological target: T2, P2Y4 receptor (Homo sapiens, UniProt P51582); test: Ca2+ mobilization with fluo-4 in 1321N1 astrocytoma cells expressing P2Y4; assay type: cell-based; conditions: 1321N1 cells expressing P2Y4
T2 construct: expressed in transfected cells; host or cells: 1321N1 human astrocytoma cells
Description: (§2) Synthetic ligands were tested for activation of P2Y6 receptor by measuring receptor induced Ca^2+ changes with the fluorescent Ca^2+ indicator fluo-4. 1321N1 human astrocytoma cell lines either expressing P2Y2, P2Y4 or P2Y6 receptors were plated into 24-well plates. Two days after plating, fluorometric measurements were made and responses of cells to a serial dilution of ligands were determined. P2Y6 receptor-mediated Ca^2+ fluorescent change was determined by normalized accumulation of fluorescent change of 3 timepoints after ligand administration subtracted by value from ACSF control. Changes in fluorescent intensity were plotted corresponding to ligand concentration in GraphPad. Dose-response curve and EC50 for each ligand was estimated using nonlinear curve fit and Sigmoidal dose-response analysis. […]
(§3) Synthetic ligands were tested for activation of P2Y6 receptor by measuring receptor induced Ca^2+ changes with the fluorescent Ca^2+ indicator fluo-4, and results are shown in FIG. 10(A)-(K). […] Two days after plating, fluorometric measurements were made and responses of cells to a serial dilution of ligands were determined. P2Y6 receptor-mediated Ca^2+ fluorescent change was determined by normalized accumulation of fluorescent change of 3 timepoints after ligand administration subtracted by value from ACSF control. […]

[9] = biological target: T1, P2Y6 receptor; test: Activation of P2Y6 receptor: Ca2+ changes with fluo-4 in 1321N1 astrocytoma cells expressing P2Y6; assay type: cell-based; set-up: expressed in transfected cells; host or cells: 1321N1 human astrocytoma cells
Description: Synthetic ligands were tested for activation of P2Y6 receptor by measuring receptor induced Ca^2+ changes with the fluorescent Ca^2+ indicator fluo-4. 1321N1 human astrocytoma cell lines either expressing P2Y2, P2Y4 or P2Y6 receptors were plated into 24-well plates. Two days after plating, fluorometric measurements were made and responses of cells to a serial dilution of ligands were determined. P2Y6 receptor-mediated Ca^2+ fluorescent change was determined by normalized accumulation of fluorescent change of 3 timepoints after ligand administration subtracted by value from ACSF control. Changes in fluorescent intensity were plotted corresponding to ligand concentration in GraphPad. Dose-response curve and EC50 for each ligand was estimated using nonlinear curve fit and Sigmoidal dose-response analysis. […] The sodium salt of compound 5 was only effective at elevating Ca^2+ levels when applied to cells expressing P2Y6 receptors and not effective in P2Y2, or P2Y4 receptor expressing cells. The ability of the sodium salt of compound 5 to elevate Ca^2+ signals in P2Y6 expressing cells was attenuated by addition of the P2Y6 receptor antagonist MRS2578.
as §2, with “fluo-4, and results are shown in FIG. 10(A)-(K).” for “fluo-4.”

[10] = biological target: T3, P2Y2 receptor (Homo sapiens, UniProt P41231); test: Ca2+ mobilization with fluo-4 in 1321N1 astrocytoma cells expressing P2Y2; assay type: cell-based; conditions: 1321N1 cells expressing P2Y2
T3 construct: expressed in transfected cells; host or cells: 1321N1 human astrocytoma cells
Description: as §2, §3

[11] = i.p. daily for 7 consecutive days
[12] = β1-42 antibody, vs vehicle control

T1 sequence (Q15077 whole entry): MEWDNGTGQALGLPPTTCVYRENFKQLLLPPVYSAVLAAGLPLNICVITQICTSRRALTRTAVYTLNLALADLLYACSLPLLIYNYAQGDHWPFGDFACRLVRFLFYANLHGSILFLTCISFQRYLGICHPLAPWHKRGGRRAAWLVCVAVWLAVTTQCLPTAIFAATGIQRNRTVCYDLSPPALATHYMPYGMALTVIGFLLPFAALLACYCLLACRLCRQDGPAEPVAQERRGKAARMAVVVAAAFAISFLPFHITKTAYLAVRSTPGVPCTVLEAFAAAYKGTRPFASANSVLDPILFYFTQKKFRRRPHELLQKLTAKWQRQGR
T2 sequence (P51582 whole entry): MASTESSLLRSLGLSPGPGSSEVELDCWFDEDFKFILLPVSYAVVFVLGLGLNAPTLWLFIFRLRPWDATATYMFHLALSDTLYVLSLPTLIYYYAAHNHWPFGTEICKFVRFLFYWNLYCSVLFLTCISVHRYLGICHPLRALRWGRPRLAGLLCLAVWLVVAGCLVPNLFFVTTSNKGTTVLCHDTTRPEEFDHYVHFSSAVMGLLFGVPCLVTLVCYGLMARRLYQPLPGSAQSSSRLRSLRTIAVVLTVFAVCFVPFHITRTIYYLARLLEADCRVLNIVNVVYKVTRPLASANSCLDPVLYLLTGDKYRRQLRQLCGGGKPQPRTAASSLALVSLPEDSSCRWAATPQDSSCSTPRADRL
T3 sequence (P41231 whole entry): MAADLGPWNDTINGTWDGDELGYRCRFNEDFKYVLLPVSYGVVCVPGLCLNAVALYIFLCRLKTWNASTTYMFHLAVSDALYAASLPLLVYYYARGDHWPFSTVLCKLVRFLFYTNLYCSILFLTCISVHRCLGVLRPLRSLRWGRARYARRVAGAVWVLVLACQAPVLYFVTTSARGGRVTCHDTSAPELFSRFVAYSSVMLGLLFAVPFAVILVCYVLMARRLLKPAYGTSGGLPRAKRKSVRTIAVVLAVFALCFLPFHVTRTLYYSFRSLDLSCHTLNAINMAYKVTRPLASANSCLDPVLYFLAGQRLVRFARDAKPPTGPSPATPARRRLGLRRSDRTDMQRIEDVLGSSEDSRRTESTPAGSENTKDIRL

With `O=c1ccn([C@@H]2O[C@H](COP(=O)(O)OP(=O)(O)O)[C@H](O)C2O)c(=O)n1Cc1noc2ccccc12` (some centres unmarked) [Compound 5] the “freezing behavior relative to wildtype animals” value [1, 11] was “restored to a level equivalent to that observed in wildtype animals”, the “total freezing percentage in the context test” value [1, 11] was “increased” and the “Aβ plaque load (%) in the cortex” value [2, 12] was “substantial decrease”. For the same compound, the “Aβ plaque load (%) in the hippocampus” value [2, 12] was “substantial decrease”, the “plasma level of IL-2” value ([3]; PSAPP mice) was “reduced” and the “plasma level of IL-7” value ([3]; PSAPP mice) was “reduced”. For the same compound, the “plasma level of IL-9” value ([3]; PSAPP mice) was “reduced”, the “plasma level of IL-10” value ([3]; PSAPP mice) was “reduced” and the “plasma level of IL-15” value ([3]; PSAPP mice) was “reduced”. The “plasma level of Il-1β” value ([3]; PSAPP mice) was “reduced”, the “plasma level of MIG” value ([3]; PSAPP mice) was “reduced” and the “plasma level of MIP1α” value ([3]; PSAPP mice) was “reduced”. For the same compound, the “plasma level of IL-2” value ([3]; wildtype animals) was “reduced” and the “plasma level of IL-10” value ([3]; wildtype animals) was “reduced”.
With `O=C(Cn1c(=O)ccn(C2OC(COP(=O)(O)OP(=O)(O)O)C(O)C2O)c1=O)c1ccccc1` (centres unmarked) [3-phenacyl-UDP] the “total freezing percentage in context test” value ([1]; chronic injection, two doses) was “increased”, the “memory deficit in contextual fear conditioning test” value ([1]; one week treatment with 1 μg/kg) was “rescued the memory deficit” and the “effects on the efficacy endpoint at the higher dose” value ([2]; 1 mg/kg) was “smaller effects”. For the same compound, the “β1-40 staining after stopping administration” value ([2]; 6 consecutive days i.p., then stopped for 2 weeks) was “rebounded”, the “immunoreactivity of β1-40 in cortex and hippocampus” value ([2]; i.p. for 4 and 6 consecutive days) was “significantly decreased” and the “selectivity for P2Y6 receptor” value [4] was > 500 fold. The EC50 ([4]; read-out: EC50, P2Y6 receptor agonist) was 70 nM and the “detrimental effects to the animal” value [5] was “did not cause detrimental effects”.
In the case of `O=c1ccn([C@@H]2O[C@H](COP(=O)(O)OP(=O)(O)O)[C@@H](O)[C@H]2O)c(=O)[nH]1` [UDP, uridine diphosphate], the “freezing behavior during the first 4 minutes” value ([1]; acute i.c.v., 5 minute testing time) is reported as “increased”, the total freezing percentage ([1]; acute i.c.v., contextual test) is reported as 49%±5% and the “decrease in plaque load, cortex” value ([2]; β1-40 antibody) is reported as 60%. The “decrease in plaque load, hippocampus” value ([2]; β1-40 antibody) was 62%, the “decrease in plaque load, cortex” value ([2]; β1-42 antibody) was 48% and the “decrease in plaque load, hippocampus” value ([2]; β1-42 antibody) was 47%. The “LTP deficit at CA1” value [6] was “reversed this LTP deficit”, the “field excitatory postsynaptic potential (fEPSP), last 15 min potentiation” value [6] was “significant increase” and the “reduction in plaque load” value ([7]; day 4 vs day 1, barrel cortex) was 17.2%. The “reduction in the number of plaques” value ([7]; day 4 vs day 1, barrel cortex) was 12.6% and the “reduction in cross-sectional area of individual identified plaques” value ([7]; second imaging session) was 18.2%.
In the case of `O=c1ccn(C2OC(COP(=O)(O)OP(=O)(O)O)[C@H](O)C2O)c(=O)n1Cc1noc2ccccc12` (some centres unmarked) [sodium salt of compound 5], the “elevating Ca2+ levels in P2Y4 receptor expressing cells” value [8] is reported as “not effective”, the “elevating Ca2+ levels in cells expressing P2Y6 receptors” value ([9]; 1321N1 cells expressing P2Y6) is reported as “effective” and the EC50 ([9]; 1321N1 cells expressing P2Y6, fluo-4 Ca2+) is reported as 12 nM. The “ability to elevate Ca2+ signals on addition of P2Y6 receptor antagonist MRS2578” value ([9]; P2Y6 expressing cells, plus MRS2578) was “attenuated” and the “elevating Ca2+ levels in P2Y2 receptor expressing cells” value [10] was “not effective”.

From patent publication US11241450B2, “Uridine diphosphate derivatives, prodrugs, compositions and uses thereof” (TUFTS UNIVERSITY, priority 2012, dated 2022)
